Assay results taken from patent publication US7105675B2, “Pyridomorphinans, thienomorphinans and use thereof” (Southern Research Institute, priority 1999, dated 2006).
Read-outs that look alike come from different tables or passages of the source.

Columns and labels:
mouse vas deferens [1] = test: Agonist activity in MVD smooth muscle preparation, inhibition of contraction; format: cell-based; conditions: read-out: agonist activity MVD IC50 (nM) or % max resp
Description: (§1) Bioassays in GPI and MVD smooth muscle preparations. Electrically-induced smooth muscle contractions of mouse vas deferens and strips of guinea pig ileum longitudinal muscle myenteric plexus were used. Tissues came from maile ICR mice weighing 25–40 g and male Hartley guinea pigs weighing 250–500 g. The tissues were tied to gold chain with suture silk, suspended in 20 mL baths containing 37° C. oxygenated (95% O2, 5% CO2) Krebs bicarbonate solution (magnesium free for the MVD), and allowed to equilibrate for 15 min. The tissues were then stretched to optimal length previously determined to be 1 g tension (0.5 g for MVD) and allowed to equilibrate for 15 min. The tissues were stimulated transmurally between platinum wire electrodes at 0.1 Hz, 0.4 ms pulses (2-ms pulses for MVD), and supramaximal voltage. An initial dose-response curve of DPDPE or PL-017 was constructed at the start of each assay to establish tissue effects, allowing each tissue to be used as its own control.
(§2) Tissues not producing typical results were not used. Experimental compounds were added to the baths in 14–60 μL volumes. Succeeding doses of argonist were added cumulatively to the bath at 3 minute intervals to produce a concentration-response curve. The tissues were then washed extensively with fresh buffer until the original contraction height was re-established. […] Antagonist effects to DPDPE and PL-017 were assayed after incubation of the tissues with 1 μM concentration of the compound in the bath for 30 minutes. The tissues were then washed with fresh buffer for 30 min, and the agonist dose-response curve was repeated. Rightward shifts in the dose-response curves were calculated by dividing the antagonized dose-response curve IC50 value by the unantagoniced IC50 value. IC50 values represent the mean of two to four tissues. IC50 estimates and their associated standard errors were determined by using a computerized nonlinear least-squares method.

κ1 opioid receptor [2] = molecular target: T1, κ1 opioid receptor (Cavia porcellus, UniProt P41144); test: Radioligand binding, kappa sites, displacement of [3H]U69,593 in guinea pig brain membranes
T1 construct: Guinea pig brain membranes were prepared each day using partially thawed guinea pig brain; from tissue; host or cells: guinea pig brain membranes
T1 sequence (P41144 whole entry): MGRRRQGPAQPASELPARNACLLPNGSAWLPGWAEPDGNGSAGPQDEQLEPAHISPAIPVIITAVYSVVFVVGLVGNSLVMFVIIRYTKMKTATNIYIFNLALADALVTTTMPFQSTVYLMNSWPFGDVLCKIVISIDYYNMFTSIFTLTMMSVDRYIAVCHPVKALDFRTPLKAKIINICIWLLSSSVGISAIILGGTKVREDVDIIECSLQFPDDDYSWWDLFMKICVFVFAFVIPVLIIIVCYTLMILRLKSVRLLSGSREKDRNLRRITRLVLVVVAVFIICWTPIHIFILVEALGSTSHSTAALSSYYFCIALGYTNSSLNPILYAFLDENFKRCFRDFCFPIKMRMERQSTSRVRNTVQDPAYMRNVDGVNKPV
Description: (§3) Radioligand Binding Assays. Mu binding sites were labeled using [^3H]DAMGO (1–3 nM). Rat membranes were prepared each day using a partially thawed frozen rat brain which was homogenized with a polytron in 10 mL/brain of ice cold 10 mM Tris-HCl, pH 7.0. Membranes were then centrifuged twice at 30,000 g for 10 min and resuspended with ice-cold buffer following each centrifugation. After the second centrifugation, the membranes were resuspended in 50 mM Tris-HCl, pH 7.4 (50 mL/brain) at 25° C. Incubations proceeded for 2 h at 25° C. in 50 mM Tris-HCl, pH 7.4, along with a protease inhibitor cocktail (PIC). The nonspecific binding was determined using 20 μM of levallorphan. Delta binding sites were labeled using [^3]DADLE (2 nM) and rat brain membranes. Rat membranes were prepared each day using a partially thawed frozen rat brain which was homogenized with a polytron in 10 mL/brain of ice cold 10 mM Tris-HCl, pH 7.0. Membranes were then centrifuged twice at 30,000 g for 10 min and resuspended with ice-cold buffer following each centrifugation. After the second centrifugation, the membranes were resuspended in 50 mM Tris-HCl, pH 7.4 (50 mL/brain) at 25° C. Incubations proceeded for 2 h at 25° C. in 50 mM Tris-HCl pH 7.4, containing 100 mM choline chloride, 3 mM MnCl2, and 100 nM DAMGO to block binding to μ sites, and PIC. Nonspecific binding was determined using 20 μM levallorphan. Kappa binding sites were labeled using [^3H]U69,593 (2 nM). Guinea pig brain membranes were prepared each day using partially thawed guinea pig brain which was homogenized with a polytron in 10 mL/brain of ice cold 10 mM Tris-HCl pH 7.0. The membranes were then centrifuged twice at 30,000 g for 10 min and resuspended with ice-cold buffer following each centrifugation. After the second centrifugation, the membranes were resuspended in 50 mM Tris-HCl, pH 7.4 (75 mL/brain) at 25° C. Incubations proceeded for 2 h at 25° C. in 50 mM Tris-HCl, pH 7.4, containing 1 μg/mL of captopril and PIC. Nonspecific binding was determined using 1 μM U69,593. Each ^3H ligand was displaced by 8–10 concentrations of test drug, two times. Compounds were prepared as 1 mM solution with 10 mM Tris buffer (pH 7.4) containing 10% DMSO before drug dilution. All drug dilutions were done at 10 mM Tris-HCl, pH 7.4, containing 1 mg/mL bovine serum albumin. All washes were done with ice-cold 10 mM Tris-HCl, pH 7.4. The IC50 and slope factor (N) were obtained by using the program MLAB-PC (Civilized Software, Bethesda, Md.). Ki values were calculated according to the equation Ki=IC50/(1+[L]/Kd).

μ opioid receptor [3] = molecular target: T2, μ opioid receptor (Rattus norvegicus, UniProt P33535); test: Radioligand binding, mu sites, displacement of [3H]DAMGO in rat brain membranes
T2 construct: Rat membranes were prepared each day using a partially thawed frozen rat brain; from tissue; host or cells: rat brain membranes
T2 sequence (P33535 whole entry): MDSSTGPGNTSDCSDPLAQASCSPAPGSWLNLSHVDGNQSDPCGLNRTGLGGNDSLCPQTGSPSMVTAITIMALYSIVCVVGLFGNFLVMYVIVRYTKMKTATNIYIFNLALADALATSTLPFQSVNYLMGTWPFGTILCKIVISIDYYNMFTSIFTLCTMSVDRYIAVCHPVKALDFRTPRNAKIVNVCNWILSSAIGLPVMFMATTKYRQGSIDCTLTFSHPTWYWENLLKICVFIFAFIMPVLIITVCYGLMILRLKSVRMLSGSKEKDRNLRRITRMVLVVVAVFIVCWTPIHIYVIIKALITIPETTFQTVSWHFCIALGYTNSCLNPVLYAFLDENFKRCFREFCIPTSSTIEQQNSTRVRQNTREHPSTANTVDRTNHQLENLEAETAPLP
Description: as §3

δ opioid receptor [4] = molecular target: T3, δ opioid receptor (Rattus norvegicus, UniProt P33533); test: Radioligand binding, delta sites, displacement of [3H]DADLE in rat brain membranes; design: Rat membranes were prepared each day using a partially thawed frozen rat brain; from tissue; host or cells: rat brain membranes; conditions: for Selectivity Ratio κ1δ / Selectivity Ratio μ/δ: ratio of Ki values
T3 sequence (P33533 whole entry): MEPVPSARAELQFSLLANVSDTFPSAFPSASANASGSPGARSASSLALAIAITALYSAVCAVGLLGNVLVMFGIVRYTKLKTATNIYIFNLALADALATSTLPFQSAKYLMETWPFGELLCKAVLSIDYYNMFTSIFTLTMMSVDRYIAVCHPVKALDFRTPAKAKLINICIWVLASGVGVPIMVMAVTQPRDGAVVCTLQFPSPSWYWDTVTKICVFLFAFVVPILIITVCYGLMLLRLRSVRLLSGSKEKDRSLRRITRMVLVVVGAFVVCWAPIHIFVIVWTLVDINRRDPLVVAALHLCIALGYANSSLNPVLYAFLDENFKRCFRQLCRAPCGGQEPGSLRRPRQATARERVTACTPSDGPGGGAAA
Description: as §3

[5] = system: guinea pig ileum longitudinal muscle myenteric plexus; test: Agonist activity in GPI smooth muscle preparation, inhibition of contraction; format: cell-based; conditions: Cavia porcellus; read-out: agonist activity GPI IC50 (nM) or % max resp
Description: as §1, §2

[6] = molecular target: T4, δ opioid receptor (DPDPE) in MVD (Mus musculus, UniProt P32300); test: Antagonist activity against DPDPE in electrically stimulated mouse vas deferens (MVD); format: cell-based; conditions: for antagonist activity DPDPE (δ) MVD IC50 ratio: 1 μM compound, 30 min incubation, IC50 of DPDPE with antagonist divided by control IC50; for Ke selectivity ratio μδ: Ke GPI (μ) over Ke MVD (δ)
T4 construct: Electrically-induced smooth muscle contractions of mouse vas deferens and strips of guinea pig ileum longitudinal muscle myenteric plexus were used; from tissue; host or cells: mouse vas deferens (male ICR mice)
T4 sequence (P32300 whole entry): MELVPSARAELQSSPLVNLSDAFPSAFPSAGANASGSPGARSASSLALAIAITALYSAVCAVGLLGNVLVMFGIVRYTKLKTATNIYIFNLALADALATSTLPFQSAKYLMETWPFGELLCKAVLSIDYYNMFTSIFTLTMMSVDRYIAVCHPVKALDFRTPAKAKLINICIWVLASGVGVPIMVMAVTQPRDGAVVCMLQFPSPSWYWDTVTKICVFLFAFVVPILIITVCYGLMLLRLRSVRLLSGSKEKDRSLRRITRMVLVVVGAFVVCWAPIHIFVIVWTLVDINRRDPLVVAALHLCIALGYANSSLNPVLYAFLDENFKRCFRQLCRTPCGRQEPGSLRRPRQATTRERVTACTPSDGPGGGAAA
Description: as §1, §2

[7] = system: μ opioid receptor (PL017) in GPI; test: Antagonist activity against PL-017 in electrically stimulated guinea pig ileum (GPI); format: cell-based; conditions: for antagonist activity PL017 (μ) GPI IC50 ratio: 1 μM compound, 30 min incubation, IC50 of PL-017 with antagonist divided by control IC50; for antagonist activity PL017 (μ) GPI Ke: Ke = [antagonist]/(IC50 ratio − 1), PL-017 as agonist, n = 3
Description: as §1, §2

[8] = system: guinea pig ileum longitudinal muscle myenteric plexus; conditions: percentage inhibition of contraction at 1 μM; data taken from Ananthan et al.; cited from earlier work
mouse vas deferens [9] = conditions: percentage inhibition of contraction at 1 μM; data taken from Ananthan et al.; cited from earlier work
μ opioid receptor [10] = molecular target: T2, μ opioid receptor; conditions: read-out: Ki (nM) ± SEM μ; [3H]DAMGO, rat brain membranes; data taken from Ananthan et al.; cited from earlier work
[11] = system: μ opioid receptor (PL017) in GPI; conditions: data taken from Ananthan et al.; cited from earlier work
δ opioid receptor [12] = molecular target: T3, δ opioid receptor; conditions: data taken from Ananthan et al., cited from earlier work
[13] = molecular target: T4, δ opioid receptor (DPDPE) in MVD; conditions: data taken from Ananthan et al.; cited from earlier work
κ1 opioid receptor [14] = molecular target: T1, κ1 opioid receptor; conditions: read-out: Ki (nM) ± SEM κ1; [3H]U69,593, guinea pig brain membranes; data taken from Ananthan et al.; cited from earlier work

Row | SMILES | inhibition at 1 µM (mouse vas deferens [1]) | Ki (κ1 opioid receptor [2]) | Ki (μ opioid receptor [3]) | Ki (δ opioid receptor [4]) | Selectivity Ratio κ1δ (δ opioid receptor [4]; pyridomorphinans) | Selectivity Ratio μ/δ (δ opioid receptor [4]; pyridomorphinans) | inhibition at 1 µM [5] | Kb [6] | antagonist activity DPDPE (δ) MVD IC50 ratio [6] | antagonist activity PL017 (μ) GPI IC50 ratio [7] | Ke selectivity ratio μδ [6] | antagonist activity PL017 (μ) GPI Ke [7] | also measured
1 | N#Cc1cnc2c(c1)CC1(O)C3Cc4ccc(O)c5c4C1(CCN3CC1CC1)C2O5 (stereo not drawn) [Compound 7c, 5′-Cyano-17-(cyclopropylmethyl)-6,7-didehydro-3,14-dihydroxy-4,5α-epoxypyrido[2′,3′:6,7]morphinan] | 0% | 33.9 ± 2 nM | 16 ± 1.8 nM | 4.5 ± 0.28 nM | 7.5 | 3.6 | 0% | 44 nM | 23.6 ± 2.2 | 2.2 ± 1.1 |  |  | 
2 | Oc1ccc2c3c1OC1c4ncccc4CC4(O)C(C2)N(CC2CC2)CCC314 (stereo not shown) [Compound 7a] |  |  |  |  |  |  |  |  |  |  |  |  | agonist activity GPI IC50 (nM) or % max resp [8]: 0%; agonist activity MVD IC50 (nM) or % max resp (mouse vas deferens [9]): 0%; Ki (μ opioid receptor [10]): 1.5 ± 0.09 nM; antagonist activity PL017 (μ) GPI IC50 ratio [11]: 7.08 ± 3.44; antagonist activity PL017 (μ) GPI Ke [11]: 164 nM; Selectivity Ratio κ1δ (δ opioid receptor [12]; ratio of Ki values): 11; Selectivity Ratio μ/δ (δ opioid receptor [12]; ratio of Ki values): 1.9; Ki (δ opioid receptor [12]; read-out: Ki (nM) ± SEM δ, [3H]DADLE, rat brain membranes): 0.78 ± 0.06 nM; Ke selectivity ratio μδ [13]: 4.4; antagonist activity DPDPE (δ) MVD IC50 ratio [13]: 27.9 ± 1.2; antagonist activity DPDPE (δ) MVD Ke [13]: 37 nM; Ki (κ1 opioid receptor [14]): 8.8 ± 0.69 nM
3 | Oc1ccc2c3c1OC1c4ncc(Br)cc4CC4(O)C(C2)N(CC2CC2)CCC314 (stereo not drawn) [Compound 7b, 5′-Bromo-17-(cyclopropylmethyl)-6,7-didehydro-3,14-dihydroxy-4,5α-epoxypyrido[2′,3′:6,7]morphinan] | 0% | 55.7 ± 7 nM | 15.5 ± 1 nM | 1.2 ± 0.13 nM | 46 | 13 | 0% | 3.1 nM | 325 ± 127 | 43.9 ± 25.6 | 14 | 23 nM | 
4 | CCOC(=O)c1c(N)sc2c1[C@@H]1Oc3c(O)ccc4c3[C@@]13CCN(CC1CC1)[C@H](C4)[C@]3(O)C2 [Compound 8c, 5′-Amino-4′-carbethoxy-17-(cyclopropylmethyl)-6,7-didehydro-3,14-dihydroxy-4,5α-epoxythieno[2′,3′:7,6]morphinan] | 11% | 9 ± 0.81 nM | 20 ± 1 nM | 5 ± 0.2 nM |  |  | 0% | 68 nM | 19.8 ± 6.6 | 46.0 ± 21.9 | 0.4 | 26 nM | Selectivity Ratio κ1δ (δ opioid receptor [4]; thienomorphinans): 1.8; Selectivity Ratio μ/δ (δ opioid receptor [4]; thienomorphinans): 4.0
